Measured values reported in ChEMBL document CHEMBL4725303, “New V1a receptor antagonist. Part 1. Synthesis and SAR development of urea derivatives” (Bioorg Med Chem Lett, 2020).

What was measured:
Vasopressin V1a receptor [1] = target: T1, Vasopressin V1a receptor (Homo sapiens, UniProt P37288); assay: Displacement of [3H]AVP from human V1a receptor expressed in […] cells assessed as dissociation constant by radioligand binding assay; assay type: cell-based, 1321N1
Target sequence in this assay (P37288 whole entry): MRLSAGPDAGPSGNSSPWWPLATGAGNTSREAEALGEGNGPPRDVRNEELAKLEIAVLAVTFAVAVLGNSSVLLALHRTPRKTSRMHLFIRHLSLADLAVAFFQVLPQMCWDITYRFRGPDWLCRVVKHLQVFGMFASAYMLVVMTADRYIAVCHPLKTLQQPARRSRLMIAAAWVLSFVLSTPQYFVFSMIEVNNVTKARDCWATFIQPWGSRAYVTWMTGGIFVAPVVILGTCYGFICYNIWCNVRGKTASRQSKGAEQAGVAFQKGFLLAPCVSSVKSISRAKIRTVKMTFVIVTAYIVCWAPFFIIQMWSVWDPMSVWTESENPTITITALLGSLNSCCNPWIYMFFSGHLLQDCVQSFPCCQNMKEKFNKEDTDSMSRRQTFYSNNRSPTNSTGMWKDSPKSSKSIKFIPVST

Vasopressin V1a receptor [2] = target: T1, Vasopressin V1a receptor; assay: Antagonist activity at human V1a receptor expressed in human 1321N1 cells assessed as decrease in Arg8-vasopressin-stimulated calcium flux by fluorometric calcium assay; assay type: functional, cell-based
Target sequence in this assay (P37288 whole entry): as above

Vasopressin V1a receptor [3] = target: T1, Vasopressin V1a receptor; assay: Antagonist activity at human V1a receptor expressed in human 1321N1 cells assessed as decrease in Arg8-vasopressin-stimulated calcium flux at 10 uM by fluorometric calcium assay relative to control; assay type: functional, cell-based
Target sequence in this assay (P37288 whole entry, looked up): as the sequence (P37288 whole entry) above

[4] = Apparent permeability across apical to basolateral side in human Caco-2 cells at 10 uM by HPLC-UV or UHPLC-MS/MS analysis; assay type: ADME, cell-based
[5] = Metabolic stability in human liver microsomes assessed as intrinsic clearance at 1 uM in presence of NADPH by HPLC-UV analysis; assay type: ADME, Microsome; details: read-out: CLH
[6] = Efflux ratio of Apparent permeability across apical to basolateral side in human Caco-2 cells at 10 uM by HPLC-UV or UHPLC-MS/MS analysis; assay type: ADME, cell-based
[7] = Metabolic stability in Wistar rat liver microsomes assessed as intrinsic clearance at 1 uM in presence of NADPH by HPLC-UV analysis; assay type: ADME, Microsome; details: read-out: CLH
[8] = Metabolic stability in NMRI mouse liver microsomes assessed as intrinsic clearance at 1 uM in presence of NADPH by HPLC-UV analysis; assay type: ADME, Microsome; details: read-out: CLH
[9] = Apparent permeability across apical to basolateral side in human Caco-2 cells at 1 uM by HPLC-UV or UHPLC-MS/MS analysis; assay type: ADME, cell-based

Compound | Ki (Vasopressin V1a receptor [1]) [nM] | IC50 (Vasopressin V1a receptor [2]) [nM] | also measured
Cc1ccccc1N1CCN(C(=O)N2CCNc3ccc(Cl)cc32)CC1 | 560 | 1400 | 
O=C(N1CCC(N2CCCCC2)CC1)N1CCNc2cc(Cl)ccc21 |  |  | inhibition (Vasopressin V1a receptor [3]): 11%
CC(=O)N1CCN(C(=O)N2CCN(c3ccccc3C)CC2)c2ccc(Cl)cc21 | 13 | 1400 | 
CC(=O)N1CCN(C(=O)N2CCN(c3ccccc3C)CC2)c2ccc(F)cc21 | 440 |  | inhibition (Vasopressin V1a receptor [3]; filed as antagonist): 62%
Cc1ccccc1N1CCN(C(=O)c2ccc(Cl)c(NC(=O)c3cccs3)c2)CC1 | 170 | 800 | 
C[C@H]1CN(C(=O)N2CCNc3cc(Cl)ccc32)CCN1c1ccccn1 | 62 | 1000 | 
O=C(N1CCN(c2ncccc2Cl)CC1)N1CCNc2cc(Cl)ccc21 | 6 | 170 | 
C[C@@H]1CN(C(=O)N2CCNc3cc(Cl)ccc32)CCN1c1ccccn1 | 310 |  | inhibition (Vasopressin V1a receptor [3]; filed as antagonist): 57%
O=C(N1CCN(Cc2ccccc2)CC1)N1CCNc2cc(Cl)ccc21 | 164 | 8300 | 
Cc1cccnc1N1CCN(C(=O)N2CCNc3cc(Cl)ccc32)[C@H](C)C1 | 70 | 750 | 
CN(C)CCn1cc(C(=O)N2CCC3(CC2)OCc2ccccc23)c2ccc(Cl)cc21 [RO-5028442] | 5.5 | 2 | Papp A→B at 10 µM [4]: 15 ×10⁻⁶ cm/s; microsomal CLint at 1 µM [5]: 20 µL/min/mg; efflux ratio at 10 µM [6]: 0.9; microsomal CLint at 1 µM [7]: 130 µL/min/mg; microsomal CLint at 1 µM [8]: 341 µL/min/mg
Cc1ccccc1N1CCN(C(=O)C2CN(C(=O)C3CC3)Cc3cc(Cl)ccc32)CC1 (racemic) | 25 |  | 
O=C(N1CCN(c2ccccn2)CC1)N1CCNc2cc(Cl)ccc21 | 160 | 6800 | 
Cc1ccccc1N1CCN(C(=O)N2CN(C(=O)C3(c4ccc(F)cc4)CC3)Cc3cc(Cl)ccc32)CC1 | 23 |  | 
C[C@H](NC(=O)[C@@H](CC(=O)N1CCC(N2CCCCC2)CC1)N1C(=O)[C@@H](N2C(=O)OC[C@@H]2c2ccccc2)[C@H]1/C=C/c1ccccc1)c1ccccc1 |  |  | Papp A→B at 10 µM [4]: 4.7 ×10⁻⁶ cm/s; microsomal CLint at 1 µM [5]: 156 µL/min/mg; microsomal CLint at 1 µM [7]: 31 µL/min/mg; microsomal CLint at 1 µM [8]: 199 µL/min/mg
Cc1ccccc1N1CCN(C(=O)N2CCNc3ccccc32)CC1 | 70 | 2800 | 
Cc1ccccc1N1CCN(C(=O)N2CCc3cc(Cl)ccc32)CC1 | 15 | 880 | 
Cc1ccccc1N1CCN(C(=O)C2CN(C(=O)C3CCCCC3)Cc3cc(Cl)ccc32)CC1 (stereo in doubt; (-)-47) | 40 | 280 | 
Cc1ccccc1N1CCN(C(=O)C2CN(C(=O)C3CCCC3)Cc3cc(Cl)ccc32)CC1 (racemic) | 6 | 35 | microsomal CLint at 1 µM [5]: 188 µL/min/mg; microsomal CLint at 1 µM [7]: 179 µL/min/mg; Papp A→B at 1 µM [9]: 4.3 ×10⁻⁶ cm/s; microsomal CLint at 1 µM [8]: 341 µL/min/mg
Cc1ccccc1N1CCN(C(=O)N2CCN(C)c3cc(Cl)ccc32)CC1 | 7 | 300 | 
Cc1ccccc1N1CCN(C(=O)C2CN(C(=O)C3CC3)Cc3cc(Cl)ccc32)CC1 (single isomer, unassigned; (-)) | 80 |  | 
CC(=O)N1Cc2cc(Cl)ccc2N(C(=O)N2CCN(c3ccccc3C)CC2)C1 | 6 | 50 | Papp A→B at 10 µM [4]: 39 ×10⁻⁶ cm/s; microsomal CLint at 1 µM [5]: 88 µL/min/mg; efflux ratio at 10 µM [6]: 0.7; microsomal CLint at 1 µM [7]: 212 µL/min/mg; microsomal CLint at 1 µM [8]: 324 µL/min/mg
CN1CCN(C(=O)C2CCN(c3ccccn3)CC2)c2ccc(Cl)cc21 | 14 | 260 | Papp A→B at 10 µM [4]: 48 ×10⁻⁶ cm/s; microsomal CLint at 1 µM [5]: 80 µL/min/mg; efflux ratio at 10 µM [6]: 0.7; microsomal CLint at 1 µM [7]: 404 µL/min/mg; microsomal CLint at 1 µM [8]: 132 µL/min/mg

Further lines, with some results ahead:

Ki (Vasopressin V1a receptor [1]) [nM] | IC50 (Vasopressin V1a receptor [2]) [nM] | Compound | also measured
5 | 180 | Cc1ccccc1N1CCN(C(=O)C2CN(C(=O)C3CC3)Cc3cc(Cl)ccc32)CC1 (stereo in doubt; (+)-44) | 
4 | 200 | Cc1ccccc1N1CCN(C(=O)N2CCCc3cc(Cl)ccc32)CC1 | 
5 | 40 | Cc1ccccc1N1CCN(C(=O)C2CN(C(=O)C3CCCCC3)Cc3cc(Cl)ccc32)CC1 (racemic) | 
5 | 390 | Cc1ccccc1N1CCN(C(=O)N2CCCCc3cc(Cl)ccc32)CC1 | 
2.3 | 25 | Cc1ccccc1N1CCN(C(=O)N2C[C@H](C(=O)C3CCCC3)Cc3cc(Cl)ccc32)CC1 | 
3 | 85 | Cc1ccccc1N1CCN(C(=O)N2CN(C)Cc3cc(Cl)ccc32)CC1 | 
0.6 | 2.4 | Cc1ccccc1N1CCN(C(=O)N2C[C@@H](C(=O)C3CCCC3)Cc3cc(Cl)ccc32)CC1 | microsomal CLint at 1 µM [5]: 72 µL/min/mg; microsomal CLint at 1 µM [7]: 170 µL/min/mg; Papp A→B at 1 µM [9]: 10 ×10⁻⁶ cm/s; microsomal CLint at 1 µM [8]: 235 µL/min/mg
4 | 21 | Cc1ccccc1N1CCN(C(=O)C2CN(C(=O)C3CCCCC3)Cc3cc(Cl)ccc32)CC1 (single isomer, unassigned; (+)) | 
5.3 | 20 | Cc1ccccc1N1CCN(C(=O)N2CN(S(C)(=O)=O)Cc3cc(Cl)ccc32)CC1 | 
3 | 40 | Cc1ccccc1N1CCN(C(=O)N2CNCc3cc(Cl)ccc32)CC1 | 
3 | 35 | Cc1ccccc1N1CCN(C(=O)N2CN(C(=O)c3ccccc3)Cc3cc(Cl)ccc32)CC1 | 
2 | 450 | Cc1cccnc1N1CCN(C(=O)N2CCNc3cc(Cl)ccc32)CC1 | 
2.6 | 11 | Cc1ccccc1N1CCN(C(=O)N2CN(C(=O)C(C)C)Cc3cc(Cl)ccc32)CC1 | 
2 | 55 | CN1CCN(C(=O)N2CCN(c3ncccc3Cl)CC2)c2ccc(Cl)cc21 | 
3 | 380 | Cc1ccccc1C1CCN(C(=O)N2CCNc3cc(Cl)ccc32)CC1 | 
1 | 11 | Cc1ccccc1N1CCN(C(=O)N2CN(C(=O)C3CCCC3)Cc3cc(Cl)ccc32)CC1 | 
5 |  | Cc1ccccc1N1CCN(C(=O)N2CN(C(=O)C3CCCCC3)Cc3cc(Cl)ccc32)CC1 | 
3.3 | 10 | Cc1ccccc1N1CCN(C(=O)N2CN(C(=O)C3CC3)Cc3cc(Cl)ccc32)CC1 | 
4.1 | 80 | Cc1ccccc1N1CCN(C(=O)N2CCNc3cc(Cl)ccc32)CC1 | microsomal CLint at 1 µM [5]: 210 µL/min/mg; microsomal CLint at 1 µM [7]: 265 µL/min/mg; Papp A→B at 1 µM [9]: 17 ×10⁻⁶ cm/s; microsomal CLint at 1 µM [8]: 66 µL/min/mg
4 | 35 | Cc1ccccc1N1CCN(C(=O)N2CN(C(=O)CO)Cc3cc(Cl)ccc32)CC1 | 
4 | 280 | O=C(N1CCC2(CC1)OCc1ccccc12)N1CCNc2cc(Cl)ccc21 | 
5 | 135 | Cc1ccccc1N1CCN(C(=O)C2CN(C(=O)C(C)C)Cc3cc(Cl)ccc32)CC1 (racemic) | 
